Test results reported in US20160135455A1, “SAFENED HERBICIDAL COMPOSITIONS COMPRISING PYRIDINE CARBOXYLIC ACIDS” (Dow AgroSciences LLC, priority 2014, published 2016).
Like-named read-outs stand apart in the source and are kept apart here.

Legend:
Type in all cases: in vivo
[1] = test system: wheat (TRZAS), Triticum aestivum (spring wheat); experiment: Postemergence greenhouse trial, crop injury (phytotoxicity/safening) on wheat; conditions: applied alone at 35 g/ha, scored 20-22 d, 0 = no injury, 100 = complete kill
Procedure: (§1) Seeds of the desired test plant species were planted in Sun Gro MetroMix® 306 planting mixture, which typically has a pH of 6.0 to 6.8 and an organic matter content of about 30 percent, in plastic pots with a surface area of 103.2 square centimeters (cm^2). When required to ensure good germination and healthy plants, a fungicide treatment and/or other chemical or physical treatment was applied. The plants were grown for 7-36 days (d) in a greenhouse with an approximate 14-hour (h) photoperiod which was maintained at about 23° C. during the day and 22° C. during the night. Nutrients and water were added on a regular basis and supplemental lighting was provided with overhead metal halide 1000-Watt lamps as necessary. The plants were employed for testing when they reached the second or third true leaf stage.
(§2) Weighed amounts of technical material were dissolved in a volume of 97:3 volume per volume (v/v) acetone/dimethyl sulfoxide (DMSO) to stock solutions. […] The concentrated stock solutions were diluted with an aqueous mixture of 1.5% v/v of Agri-dex crop oil concentrate to provide the appropriate application rates. Compound requirements are based upon a 12 milliliter (mL) application volume at a rate of 187 liters per hectare (L/ha). Stocks solutions of the safeners were prepared following the same procedure. Spray solutions of the safeners and experimental compound mixtures were prepared by adding the stock solutions to the appropriate amount of dilution solution to form a 12 mL spray solution in two-way combinations. Formulated compounds were applied to the plant material with an overhead Mandel track sprayer equipped with 8002E nozzles calibrated to deliver 187 L/ha over an application area of 0.503 square meters (m^2) at a spray height of 18 inches (43 centimeters (cm)) above average plant canopy. Control plants were sprayed in the same manner with the solvent blank. All herbicide application (component a) rates are in g ae/ha and all safener (component b) rates are in g ai/ha.
(§3) The treated plants and control plants were placed in a greenhouse as described above and watered by sub-irrigation to prevent wash-off of the test compounds. After 20-22 d, the condition of the test plants as compared with that of the control plants was determined visually and scored on a scale of 0 to 100 percent where 0 corresponds to no injury and 100 corresponds to complete kill. The condition of the test plants was compared with that of the control plants as determined visually and scored on a scale of 0 to 100 percent, where 0 corresponds to no injury and 100 corresponds to complete kill. Colby's equation was used to determine the herbicidal effects expected from the mixtures.
(§4) The safener fenchlorazole-ethyl was combined with compound 1, compound 2, compound 3, compound 4, compound 5, and compound 6, and applied to wheat (TRZAS), and the phytotoxicity of the herbicidal compositions was measured. In addition, the efficacy of the herbicidal composition on velvetleaf (ABUTH, Abutilon theophrasti), pigweed (AMARE, Amaranthus retroflexus), winter rape (BRSNW, Brassica napus), lambsquarters (CHEAL, Chenopodium album), thistle (CIRAR, Cirsium arvense), nutsedge (CYPES, Cyperus esculentus), poinsettia (EPHHL, Euphorbia heterophylla), wild buckwheat (POLCO, Polygonum convolvulus), giant foxtail (SETFA, Setaria faberi), sorghum (SORVU, Sorghum bicolor), chickweed (STEME, Stellaria media), and wild pansy (VIOTR, Viola tricolor) was evaluated.
The safener isoxadifen-ethyl was combined with compound 1, compound 2, compound 3, compound 4, compound 5, and compound 6, and applied to wheat (TRZAS), and the phytotoxicity of the herbicidal compositions was measured. […]

[2] = test system: velvetleaf (ABUTH, Abutilon theophrasti); experiment: Postemergence greenhouse trial, herbicidal efficacy on velvetleaf; conditions: post-emergence, 528 h, applied alone at 35 g/ha, postemergence
Procedure: as §1, §2, §3

[3] = test system: pigweed (AMARE, Amaranthus retroflexus); experiment: Postemergence greenhouse trial, herbicidal efficacy on pigweed; conditions: post-emergence, 528 h, applied alone at 35 g/ha, postemergence
Procedure: as §1, §2, §3

[4] = test system: winter rape (BRSNW, Brassica napus); experiment: Postemergence greenhouse trial, herbicidal efficacy on winter rape; conditions: post-emergence, 528 h, applied alone at 35 g/ha, postemergence
Procedure: as §1, §2, §3

[5] = test system: lambsquarters (CHEAL, Chenopodium album); experiment: Postemergence greenhouse trial, herbicidal efficacy on lambsquarters; conditions: post-emergence, 528 h, applied alone at 35 g/ha, postemergence
Procedure: as §1, §2, §3

[6] = test system: thistle (CIRAR, Cirsium arvense); experiment: Postemergence greenhouse trial, herbicidal efficacy on thistle; conditions: post-emergence, 528 h, applied alone at 35 g/ha, postemergence
Procedure: as §1, §2, §3

[7] = test system: poinsettia (EPHHL, Euphorbia heterophylla); experiment: Postemergence greenhouse trial, herbicidal efficacy on poinsettia; conditions: Euphorbia heterophylla, post-emergence, 528 h; applied alone at 35 g/ha, postemergence, rated after 20-22 d; read-out: % visual injury, Obs, EPHHL
Procedure: as §1, §2, §3

[8] = test system: wild buckwheat (POLCO, Polygonum convolvulus); experiment: Postemergence greenhouse trial, herbicidal efficacy on wild buckwheat; conditions: Fallopia convolvulus, post-emergence, 528 h, applied alone at 35 g/ha, postemergence
Procedure: as §1, §2, §3

[9] = test system: giant foxtail (SETFA, Setaria faberi); experiment: Postemergence greenhouse trial, herbicidal efficacy on giant foxtail; conditions: applied alone at 35 g/ha
Procedure: as §1, §2, §3

[10] = test system: sorghum (SORVU, Sorghum bicolor); experiment: Postemergence greenhouse trial, herbicidal efficacy on sorghum; conditions: applied alone at 35 g/ha, rated after 20-22 d
Procedure: as §1, §2, §3

[11] = test system: chickweed (STEME, Stellaria media); experiment: Postemergence greenhouse trial, herbicidal efficacy on chickweed; conditions: post-emergence, 528 h, applied alone at 35 g/ha, postemergence
Procedure: as §1, §2, §3

[12] = test system: wild pansy (VIOTR, Viola tricolor); experiment: Postemergence greenhouse trial, herbicidal efficacy on wild pansy; conditions: applied alone at 35 g/ha, postemergence
Procedure: as §1, §2, §3

[13] = test system: corn/maize (ZEAMX), Zea mays; experiment: Postemergence greenhouse trial, crop injury (phytotoxicity/safening) on corn/maize; conditions: applied alone at 35 g/ha, rated after 20-22 d
Procedure: as §1
as §2, with “All herbicide application (component a) rates are in g ae/ha and all safener (component b) rates are in g ai/ha.” left out
as §3, with “Colby's equation was used to determine the herbicidal effects expected from the mixtures.” left out
as §4, with “compound” for “compound 3, compound 4, compound”, “corn/maize (ZEAMX)” for “wheat (TRZAS),”, “bicolor), and” for “bicolor),”, “media)” for “media), and wild pansy (VIOTR, Viola tricolor)”
The safener mefenpyr-diethyl was combined with compound 1, compound 2, and compound 5, and applied to corn/maize (ZEAMX) and the phytotoxicity of the herbicidal compositions were measured. […]

`COCC(=O)n1ccc2ccc(-c3nc(C(=O)OC)c(Cl)c(N)c3F)c(F)c21` [compound 6] was tested. Which “Obs, % visual injury, TRZAS” value [1] did it give?
Its value is 35%.

And the pest or weed control at 35 g/ha ([2]; rated after 20-22 d, read-out: % visual injury, Obs, ABUTH)?
Its pest or weed control at 35 g/ha is 80%.

And the pest or weed control at 35 g/ha ([2]; scored 20-22 d, read-out: Obs, % visual injury, ABUTH)?
Its pest or weed control at 35 g/ha is 80%.

What about the pest or weed control at 35 g/ha ([3]; rated after 20-22 d, read-out: % visual injury, Obs, AMARE) of the same compound?
Its pest or weed control at 35 g/ha is 100%.

And the pest or weed control at 35 g/ha ([3]; scored 20-22 d, read-out: Obs, % visual injury, AMARE)?
Its pest or weed control at 35 g/ha is 100%.

And the plant injury at 35 g/ha ([4]; rated after 20-22 d, read-out: % visual injury, Obs, BRSNW)?
Its plant injury at 35 g/ha is 75%.

And the plant injury at 35 g/ha ([4]; scored 20-22 d, read-out: Obs, % visual injury, BRSNW)?
Its plant injury at 35 g/ha is 75%.

And the pest or weed control at 35 g/ha ([5]; rated after 20-22 d, read-out: % visual injury, Obs, CHEAL)?
Its pest or weed control at 35 g/ha is 100%.

What about the pest or weed control at 35 g/ha ([5]; scored 20-22 d, read-out: Obs, % visual injury, CHEAL) of the same compound?
Its pest or weed control at 35 g/ha is 100%.

And the pest or weed control at 35 g/ha ([6]; rated after 20-22 d, read-out: % visual injury, Obs, CIRAR)?
The pest or weed control at 35 g/ha was 75%.

What about the pest or weed control at 35 g/ha ([6]; scored 20-22 d, read-out: Obs, % visual injury, CIRAR) of the same compound?
The pest or weed control at 35 g/ha was 75%.

What about the pest or weed control at 35 g/ha [7] of the same compound?
The pest or weed control at 35 g/ha was 100%.

What about the pest or weed control at 35 g/ha ([8]; rated after 20-22 d, read-out: % visual injury, Obs, POLCO) of the same compound?
Its pest or weed control at 35 g/ha is 97%.

And the pest or weed control at 35 g/ha ([8]; scored 20-22 d, read-out: Obs, % visual injury, POLCO)?
Its pest or weed control at 35 g/ha is 97%.

And the “% visual injury, Obs, SETFA” value ([9]; rated after 20-22 d)?
The value was 10%.

And the “Obs, % visual injury, SETFA” value ([9]; scored 20-22 d)?
The value was 10%.

And the “% visual injury, Obs, SORVU” value [10]?
The value was 70%.

And the pest or weed control at 35 g/ha ([11]; rated after 20-22 d, read-out: % visual injury, Obs, STEME)?
The pest or weed control at 35 g/ha was 97%.

What about the pest or weed control at 35 g/ha ([11]; scored 20-22 d, read-out: Obs, % visual injury, STEME) of the same compound?
The pest or weed control at 35 g/ha was 97%.

What about the pest or weed control at 35 g/ha ([12]; Viola tricolor, post-emergence, 528 h, scored 20-22 d, read-out: Obs, % visual injury, VIOTR) of the same compound?
Its pest or weed control at 35 g/ha is 30%.

What about the “% visual injury, Obs, VIOTR” value ([12]; rated after 20-22 d) of the same compound?
The value was 30%.

What about the “% visual injury, Obs, ZEAMX” value [13] of the same compound?
The value was 25%.
